According to ChEMBL document CHEMBL5291721, “A preclinical secondary pharmacology resource illuminates target-adverse drug reaction associations of marketed drugs” (Nat Commun, 2023):

Legend:
[1] = target: Voltage-dependent N-type calcium channel subunit alpha-1B (Rattus norvegicus, UniProt Q02294); format: functional
[2] = target: Substance-P receptor (Homo sapiens, UniProt P25103)
[3] = target: 5-hydroxytryptamine receptor 2B (Homo sapiens, UniProt P41595)
[4] = target: Gamma-aminobutyric acid type B receptor subunit 1 (Homo sapiens, UniProt Q9UBS5)
[5] = target: Cannabinoid receptor 1 (Homo sapiens, UniProt P21554); format: functional
[6] = target: T1, Muscarinic acetylcholine receptor M1 (Homo sapiens, UniProt P11229); format: functional, cell-based
T1 sequence (P11229 whole entry): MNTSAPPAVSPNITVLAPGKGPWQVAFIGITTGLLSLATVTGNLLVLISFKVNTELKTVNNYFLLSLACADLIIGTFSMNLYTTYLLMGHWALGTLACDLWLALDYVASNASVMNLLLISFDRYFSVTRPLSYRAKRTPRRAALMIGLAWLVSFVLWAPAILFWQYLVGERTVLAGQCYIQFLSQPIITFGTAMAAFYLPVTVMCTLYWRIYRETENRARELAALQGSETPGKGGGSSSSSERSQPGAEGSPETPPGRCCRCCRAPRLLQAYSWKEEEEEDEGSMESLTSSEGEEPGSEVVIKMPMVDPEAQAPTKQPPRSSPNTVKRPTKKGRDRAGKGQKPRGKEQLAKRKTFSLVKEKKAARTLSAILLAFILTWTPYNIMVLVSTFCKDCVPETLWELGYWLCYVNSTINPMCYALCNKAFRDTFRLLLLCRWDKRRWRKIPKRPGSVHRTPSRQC

[7] = target: Gamma-aminobutyric acid receptor subunit alpha-1/alpha-2/beta-2/gamma-2 (Homo sapiens, UniProt P14867+P18507+P47869+P47870); format: functional, cell-based
[8] = target: Hydroxycarboxylic acid receptor 2 (Homo sapiens, UniProt Q8TDS4)
[9] = target: T2, Glucocorticoid receptor (Homo sapiens, UniProt P04150); format: functional
T2 sequence (P04150 whole entry): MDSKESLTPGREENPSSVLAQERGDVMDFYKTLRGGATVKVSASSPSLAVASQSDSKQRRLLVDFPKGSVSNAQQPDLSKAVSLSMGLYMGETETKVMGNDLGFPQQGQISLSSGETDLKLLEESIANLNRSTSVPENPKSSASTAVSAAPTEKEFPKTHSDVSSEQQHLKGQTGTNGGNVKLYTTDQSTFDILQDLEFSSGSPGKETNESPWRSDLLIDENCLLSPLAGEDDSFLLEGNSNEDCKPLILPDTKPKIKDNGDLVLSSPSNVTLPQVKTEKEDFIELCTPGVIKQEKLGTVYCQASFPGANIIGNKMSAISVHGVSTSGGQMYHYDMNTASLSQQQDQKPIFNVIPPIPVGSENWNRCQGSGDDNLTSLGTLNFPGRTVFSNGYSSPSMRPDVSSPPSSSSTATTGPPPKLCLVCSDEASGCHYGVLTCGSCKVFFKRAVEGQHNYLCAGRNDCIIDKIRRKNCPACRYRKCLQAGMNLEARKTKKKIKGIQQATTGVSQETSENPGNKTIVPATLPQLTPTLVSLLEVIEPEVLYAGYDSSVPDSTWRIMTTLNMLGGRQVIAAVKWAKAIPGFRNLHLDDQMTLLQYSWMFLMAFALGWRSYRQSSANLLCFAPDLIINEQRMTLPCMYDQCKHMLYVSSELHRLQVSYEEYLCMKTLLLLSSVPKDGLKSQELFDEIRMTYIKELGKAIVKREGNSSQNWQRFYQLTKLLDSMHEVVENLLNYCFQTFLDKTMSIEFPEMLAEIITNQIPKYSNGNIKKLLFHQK

[10] = target: T3, Estrogen receptor (Homo sapiens, UniProt P03372); format: functional
T3 sequence (P03372 whole entry): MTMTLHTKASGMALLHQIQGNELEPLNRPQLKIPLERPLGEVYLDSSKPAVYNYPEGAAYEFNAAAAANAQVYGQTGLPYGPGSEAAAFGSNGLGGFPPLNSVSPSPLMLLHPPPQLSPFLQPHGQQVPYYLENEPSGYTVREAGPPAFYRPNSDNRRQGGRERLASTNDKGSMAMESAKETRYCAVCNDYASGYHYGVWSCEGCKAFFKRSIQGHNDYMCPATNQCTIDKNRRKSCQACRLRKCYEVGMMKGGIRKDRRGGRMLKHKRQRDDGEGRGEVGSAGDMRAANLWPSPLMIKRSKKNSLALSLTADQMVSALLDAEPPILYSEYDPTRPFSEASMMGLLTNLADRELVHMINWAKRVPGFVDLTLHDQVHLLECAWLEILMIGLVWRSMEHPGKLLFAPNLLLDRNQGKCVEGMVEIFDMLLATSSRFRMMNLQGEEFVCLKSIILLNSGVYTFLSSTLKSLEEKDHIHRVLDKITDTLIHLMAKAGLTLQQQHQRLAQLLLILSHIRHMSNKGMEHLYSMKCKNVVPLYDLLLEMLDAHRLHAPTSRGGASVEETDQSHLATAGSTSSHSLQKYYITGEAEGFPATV

[11] = target: 5-hydroxytryptamine receptor 2A (Homo sapiens, UniProt P28223)
Further: assay procedure not described here.

Sequence of Voltage-dependent N-type calcium channel subunit alpha-1B (Q02294 whole entry): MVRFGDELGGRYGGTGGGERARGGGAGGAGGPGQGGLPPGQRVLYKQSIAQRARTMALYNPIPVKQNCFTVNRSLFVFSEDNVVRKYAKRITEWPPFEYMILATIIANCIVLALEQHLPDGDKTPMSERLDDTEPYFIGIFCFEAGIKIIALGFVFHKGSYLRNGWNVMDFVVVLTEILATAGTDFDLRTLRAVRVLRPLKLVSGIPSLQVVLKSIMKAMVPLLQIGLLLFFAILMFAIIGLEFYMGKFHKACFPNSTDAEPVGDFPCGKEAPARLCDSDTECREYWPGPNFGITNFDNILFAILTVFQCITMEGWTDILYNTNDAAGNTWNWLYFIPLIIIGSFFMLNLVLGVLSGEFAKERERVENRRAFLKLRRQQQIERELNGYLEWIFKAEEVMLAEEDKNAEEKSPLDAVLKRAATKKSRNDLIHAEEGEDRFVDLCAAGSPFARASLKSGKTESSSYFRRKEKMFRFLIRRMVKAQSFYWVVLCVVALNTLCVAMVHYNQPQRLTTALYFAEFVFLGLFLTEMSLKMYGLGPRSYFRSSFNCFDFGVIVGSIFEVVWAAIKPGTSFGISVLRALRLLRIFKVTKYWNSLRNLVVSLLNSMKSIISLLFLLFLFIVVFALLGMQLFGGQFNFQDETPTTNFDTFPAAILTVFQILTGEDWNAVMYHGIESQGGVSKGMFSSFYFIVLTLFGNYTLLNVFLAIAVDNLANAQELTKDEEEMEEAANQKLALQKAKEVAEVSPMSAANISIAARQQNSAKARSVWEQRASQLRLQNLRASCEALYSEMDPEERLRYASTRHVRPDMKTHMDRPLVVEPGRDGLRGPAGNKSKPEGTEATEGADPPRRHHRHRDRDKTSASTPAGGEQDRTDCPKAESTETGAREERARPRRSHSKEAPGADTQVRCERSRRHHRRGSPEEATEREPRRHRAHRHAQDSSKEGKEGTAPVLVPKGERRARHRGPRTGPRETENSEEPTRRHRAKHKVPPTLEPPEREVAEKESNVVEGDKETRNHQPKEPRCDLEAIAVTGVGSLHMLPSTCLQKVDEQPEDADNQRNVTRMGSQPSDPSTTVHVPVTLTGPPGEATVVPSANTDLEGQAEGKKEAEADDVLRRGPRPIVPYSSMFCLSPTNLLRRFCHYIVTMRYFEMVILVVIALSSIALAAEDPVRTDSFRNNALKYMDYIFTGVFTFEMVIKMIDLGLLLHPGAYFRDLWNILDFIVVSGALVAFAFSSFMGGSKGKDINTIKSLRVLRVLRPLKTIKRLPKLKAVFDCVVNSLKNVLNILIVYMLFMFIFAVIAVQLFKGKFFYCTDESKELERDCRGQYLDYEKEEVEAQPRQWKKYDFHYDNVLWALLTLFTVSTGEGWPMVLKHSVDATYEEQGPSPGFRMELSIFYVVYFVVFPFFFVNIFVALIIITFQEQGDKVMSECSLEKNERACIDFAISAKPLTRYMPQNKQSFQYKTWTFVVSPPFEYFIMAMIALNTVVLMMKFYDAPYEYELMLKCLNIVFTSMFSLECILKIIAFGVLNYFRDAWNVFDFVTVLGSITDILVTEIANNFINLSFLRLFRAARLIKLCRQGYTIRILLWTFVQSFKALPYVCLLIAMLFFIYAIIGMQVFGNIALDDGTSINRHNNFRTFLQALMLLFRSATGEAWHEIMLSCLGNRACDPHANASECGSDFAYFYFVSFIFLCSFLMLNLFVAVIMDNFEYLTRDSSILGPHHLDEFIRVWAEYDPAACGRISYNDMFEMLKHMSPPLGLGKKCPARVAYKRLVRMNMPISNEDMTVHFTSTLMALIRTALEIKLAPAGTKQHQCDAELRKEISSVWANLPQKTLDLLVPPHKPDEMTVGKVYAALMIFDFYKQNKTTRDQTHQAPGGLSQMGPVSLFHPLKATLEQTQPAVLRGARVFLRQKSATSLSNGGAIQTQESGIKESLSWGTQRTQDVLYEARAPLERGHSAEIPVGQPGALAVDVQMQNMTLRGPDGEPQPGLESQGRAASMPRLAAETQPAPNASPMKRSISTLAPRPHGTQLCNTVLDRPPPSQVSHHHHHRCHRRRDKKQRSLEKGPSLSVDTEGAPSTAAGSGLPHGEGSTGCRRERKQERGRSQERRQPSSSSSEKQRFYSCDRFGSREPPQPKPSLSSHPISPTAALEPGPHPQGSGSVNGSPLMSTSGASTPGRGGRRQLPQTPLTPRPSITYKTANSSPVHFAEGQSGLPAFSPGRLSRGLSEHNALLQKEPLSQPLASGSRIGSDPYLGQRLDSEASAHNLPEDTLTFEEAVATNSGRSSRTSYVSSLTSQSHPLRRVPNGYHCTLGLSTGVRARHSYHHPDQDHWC
Sequence of Gamma-aminobutyric acid receptor subunit alpha-1/alpha-2/beta-2/gamma-2 (P14867 whole entry): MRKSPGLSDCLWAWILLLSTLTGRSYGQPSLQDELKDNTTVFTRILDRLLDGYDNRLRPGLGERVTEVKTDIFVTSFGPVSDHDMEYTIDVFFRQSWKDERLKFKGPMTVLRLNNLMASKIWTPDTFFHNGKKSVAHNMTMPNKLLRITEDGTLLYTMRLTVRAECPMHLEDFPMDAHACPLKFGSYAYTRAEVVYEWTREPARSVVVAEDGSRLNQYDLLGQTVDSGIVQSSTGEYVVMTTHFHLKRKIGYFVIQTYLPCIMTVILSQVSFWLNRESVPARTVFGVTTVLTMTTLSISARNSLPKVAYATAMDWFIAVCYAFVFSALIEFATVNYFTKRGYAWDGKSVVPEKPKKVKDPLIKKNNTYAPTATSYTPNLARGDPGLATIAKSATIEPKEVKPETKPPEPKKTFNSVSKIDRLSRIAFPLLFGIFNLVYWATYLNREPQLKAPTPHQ
Sequence of Gamma-aminobutyric acid receptor subunit alpha-1/alpha-2/beta-2/gamma-2 (P47870 whole entry): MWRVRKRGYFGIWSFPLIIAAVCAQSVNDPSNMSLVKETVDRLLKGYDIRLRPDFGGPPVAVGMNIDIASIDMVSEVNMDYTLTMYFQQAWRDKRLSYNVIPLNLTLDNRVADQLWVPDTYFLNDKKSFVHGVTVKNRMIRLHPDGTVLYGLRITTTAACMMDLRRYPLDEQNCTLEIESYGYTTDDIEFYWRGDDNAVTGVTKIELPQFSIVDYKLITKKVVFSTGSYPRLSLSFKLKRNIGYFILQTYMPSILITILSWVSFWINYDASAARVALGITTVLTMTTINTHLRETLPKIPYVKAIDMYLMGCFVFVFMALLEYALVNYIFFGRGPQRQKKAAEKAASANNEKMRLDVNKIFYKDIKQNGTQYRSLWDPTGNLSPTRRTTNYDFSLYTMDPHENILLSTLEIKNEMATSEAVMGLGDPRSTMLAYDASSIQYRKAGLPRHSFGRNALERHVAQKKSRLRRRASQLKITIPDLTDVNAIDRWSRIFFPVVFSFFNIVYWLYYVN
Sequence of Gamma-aminobutyric acid receptor subunit alpha-1/alpha-2/beta-2/gamma-2 (P18507 whole entry): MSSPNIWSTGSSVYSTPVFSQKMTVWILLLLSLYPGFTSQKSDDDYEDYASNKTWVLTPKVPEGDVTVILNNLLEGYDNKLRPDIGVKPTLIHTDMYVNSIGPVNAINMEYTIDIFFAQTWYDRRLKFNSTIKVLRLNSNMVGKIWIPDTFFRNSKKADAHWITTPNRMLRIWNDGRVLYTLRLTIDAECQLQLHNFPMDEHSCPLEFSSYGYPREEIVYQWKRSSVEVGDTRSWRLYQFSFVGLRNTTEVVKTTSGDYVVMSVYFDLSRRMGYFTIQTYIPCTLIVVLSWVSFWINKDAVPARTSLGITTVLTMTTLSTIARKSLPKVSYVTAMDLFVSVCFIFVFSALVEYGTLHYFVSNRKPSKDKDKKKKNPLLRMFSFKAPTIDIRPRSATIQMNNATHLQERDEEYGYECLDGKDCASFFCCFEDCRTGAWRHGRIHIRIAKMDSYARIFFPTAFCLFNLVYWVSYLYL
Sequence of Gamma-aminobutyric acid receptor subunit alpha-1/alpha-2/beta-2/gamma-2 (P47869 whole entry): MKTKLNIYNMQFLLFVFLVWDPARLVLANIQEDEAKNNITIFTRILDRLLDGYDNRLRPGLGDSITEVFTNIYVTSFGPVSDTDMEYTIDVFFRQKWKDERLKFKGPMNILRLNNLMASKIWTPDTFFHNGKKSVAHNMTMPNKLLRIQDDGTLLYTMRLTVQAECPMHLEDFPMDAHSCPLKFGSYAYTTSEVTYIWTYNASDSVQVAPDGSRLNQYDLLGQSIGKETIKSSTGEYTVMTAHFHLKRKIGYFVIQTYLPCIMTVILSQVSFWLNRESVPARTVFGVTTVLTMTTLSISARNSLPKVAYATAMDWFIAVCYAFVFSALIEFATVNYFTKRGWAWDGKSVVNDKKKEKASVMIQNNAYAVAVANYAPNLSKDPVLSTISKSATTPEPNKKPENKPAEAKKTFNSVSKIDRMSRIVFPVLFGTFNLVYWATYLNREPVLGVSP
Sequence of Hydroxycarboxylic acid receptor 2 (Q8TDS4 whole entry): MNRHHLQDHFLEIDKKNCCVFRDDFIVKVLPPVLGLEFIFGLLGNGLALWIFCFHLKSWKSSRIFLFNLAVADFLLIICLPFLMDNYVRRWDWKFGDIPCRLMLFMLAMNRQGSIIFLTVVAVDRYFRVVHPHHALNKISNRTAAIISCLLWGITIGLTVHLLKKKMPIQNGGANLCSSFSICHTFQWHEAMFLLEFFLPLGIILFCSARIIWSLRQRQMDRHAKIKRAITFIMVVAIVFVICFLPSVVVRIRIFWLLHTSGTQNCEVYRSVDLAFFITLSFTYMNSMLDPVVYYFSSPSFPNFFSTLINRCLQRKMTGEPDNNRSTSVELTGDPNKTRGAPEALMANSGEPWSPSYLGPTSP
Sequence of Cannabinoid receptor 1 (P21554 whole entry): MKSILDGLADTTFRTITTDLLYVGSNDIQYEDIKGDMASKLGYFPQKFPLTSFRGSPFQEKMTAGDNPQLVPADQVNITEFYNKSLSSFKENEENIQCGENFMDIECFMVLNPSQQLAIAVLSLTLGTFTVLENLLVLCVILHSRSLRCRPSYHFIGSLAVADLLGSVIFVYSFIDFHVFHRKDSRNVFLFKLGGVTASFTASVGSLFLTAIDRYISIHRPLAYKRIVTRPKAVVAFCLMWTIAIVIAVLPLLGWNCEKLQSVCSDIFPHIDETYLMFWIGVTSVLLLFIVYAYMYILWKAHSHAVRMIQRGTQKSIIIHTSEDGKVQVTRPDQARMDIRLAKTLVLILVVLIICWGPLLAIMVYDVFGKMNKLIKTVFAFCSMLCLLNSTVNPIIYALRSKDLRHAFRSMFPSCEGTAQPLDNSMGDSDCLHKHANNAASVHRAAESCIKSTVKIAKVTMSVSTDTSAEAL

| Compound | AC50 [1] [µM] | AC50 [2] [µM] | AC50 [3] [µM] | AC50 [6] [µM] | also measured |
| --- | --- | --- | --- | --- | --- |
| CN(C)CCCN1c2ccccc2CCc2ccc(Cl)cc21 [CLOMIPRAMINE] | > 10 |  |  |  |  |
| NS(=O)(=O)c1cc2c(cc1Cl)NCNS2(=O)=O [HYDROCHLOROTHIAZIDE] | > 10 | > 10 | 6.91 |  | AC50 [4]: > 10 µM; AC50 [5]: > 10 µM |
| C(=N\NC1=NCCN1)/c1c2ccccc2c(/C=N/NC2=NCCN2)c2ccccc12 [BISANTRENE] |  |  |  | > 10 |  |
| O=C1c2c(O)c(=O)ccn2N([C@@H]2c3ccccc3SCc3c2ccc(F)c3F)[C@@H]2COCCN12 [BALOXAVIR] |  |  |  | > 30 |  |
| N[C@@H](C(=O)N[C@@H]1C(=O)N2C(C(=O)O)=C(Cl)CS[C@H]12)c1ccccc1 [CEFACLOR ANHYDROUS] |  |  |  |  | AC50 [7]: > 30 µM |
| CCN(CC)CCNC(=O)c1cc(Cl)c(N)cc1OC [METOCLOPRAMIDE] | > 10 | > 10 | 0.314 |  | AC50 [8]: > 10 µM |
| CCc1nn(CCCN2CCN(c3cccc(Cl)c3)CC2)c(=O)n1CCOc1ccccc1 [NEFAZODONE] | > 10 | 2.45 | 0.084 |  | AC50 [4]: > 10 µM; AC50 [5]: > 10 µM |
| OCc1cc([C@@H](O)CNCCCCCCOCCOCc2c(Cl)cccc2Cl)ccc1O [VILANTEROL] |  |  |  |  | AC50 [9]: > 30 µM; AC50 [7]: > 30 µM; AC50 [10]: > 30 µM |
| COc1cc(Nc2c(C#N)cnc3cc(OCCCN4CCN(C)CC4)c(OC)cc23)c(Cl)cc1Cl [BOSUTINIB] | > 10 | 8 |  | > 10 | AC50 [4]: > 10 µM; AC50 [5]: > 10 µM |
| CC(C)NCC(O)COc1ccc(COCCOC(C)C)cc1 (configuration not stated) [BISOPROLOL] | > 10 | > 10 | > 10 |  | AC50 [11]: > 10 µM |
| O=C(COc1ccc(Cl)cc1)N1CCN(Cc2ccc3c(c2)OCO3)CC1 [FIPEXIDE] |  |  |  | > 30 |  |
| O=C1c2ccccc2C(=O)C1C(=O)C(c1ccccc1)c1ccccc1 [DIPHENADIONE] |  |  |  | 7.26 |  |
| C[N+](C)(C)CCCCCCCCCC[N+](C)(C)C [DECAMETHONIUM] |  |  |  | > 30 |  |
| CC(=O)Oc1c(C)cc(OCC(O)CNC(C)C)c(C)c1C (configuration not stated) [METIPRANOLOL] |  |  |  | > 30 |  |
| CC(N/C(=N\C#N)Nc1ccncc1)C(C)(C)C (configuration not stated) [PINACIDIL ANHYDROUS] |  |  |  | > 30 |  |
| CCC(=O)c1c(O)cc(O)cc1O [FLOPROPIONE] |  |  |  | > 30 |  |
| O=C1[C@H](CC[C@H](O)c2ccc(F)cc2)[C@@H](c2ccc(O)cc2)N1c1ccc(F)cc1 [EZETIMIBE] |  |  |  | > 30 |  |
| C#C[C@]1(O)CC[C@H]2[C@@H]3CCc4cc(O)ccc4[C@H]3CC[C@@]21C [ETHINYL ESTRADIOL] | > 10 | > 10 | > 30 |  | AC50 [9]: > 30 µM; AC50 [4]: > 10 µM; AC50 [8]: > 10 µM |
| CC[C@H](C)C(=O)O[C@H]1C[C@H](O)C=C2C=C[C@H](C)[C@H](CC[C@@H](O)C[C@@H](O)CC(=O)O)[C@H]21 [PRAVASTATIN] |  |  |  |  | AC50 [9]: > 30 µM; AC50 [10]: > 30 µM |
| CN(CCOc1ccc(NS(C)(=O)=O)cc1)CCc1ccc(NS(C)(=O)=O)cc1 [DOFETILIDE] | > 10 | > 10 | > 10 | > 30 | AC50 [11]: > 10 µM; AC50 [8]: > 10 µM |

| Compound | AC50 [1] [µM] | AC50 [2] [µM] | AC50 [3] [µM] | AC50 [6] [µM] | also measured |
| --- | --- | --- | --- | --- | --- |
| CCOC(=O)[C@H](CCc1ccccc1)N[C@@H](C)C(=O)N1CCC[C@H]1C(=O)O | > 10 | > 10 | > 10 |  | AC50 [4]: > 10 µM; AC50 [5]: > 10 µM |
| CCOC(=O)c1ccc(O)cc1 [ETHYLPARABEN] |  |  |  | > 30 |  |
| OCCN1CCN(CCCN2c3ccccc3C=Cc3ccccc32)CC1 [OPIPRAMOL] |  |  |  | > 30 | AC50 [7]: > 30 µM |
| O=C(CCCCCCC(=O)Nc1ccccc1)NO [VORINOSTAT] | > 10 | > 10 | > 10 |  | AC50 [7]: > 30 µM; AC50 [4]: > 10 µM; AC50 [11]: > 10 µM; AC50 [5]: > 10 µM |
| CCC[C@@H]1C[C@@H](C(=O)N[C@@H]([C@H]2O[C@H](SC)[C@H](O)[C@@H](O)[C@H]2O)[C@H](C)Cl)N(C)C1 [CLINDAMYCIN] | > 10 | > 10 | > 10 |  | AC50 [8]: > 10 µM |
| CC(C(=O)O)c1ccc(N2CC=CC2)c(Cl)c1 (configuration not stated) [PIRPROFEN] | > 10 | > 10 | > 10 | > 30 | AC50 [11]: > 10 µM; AC50 [8]: > 10 µM |
| C[C@H]1O[C@H](O[C@H]2[C@H](O)[C@@H](O)[C@@H](O[C@H]3[C@H](O)[C@@H](O)C(O)O[C@@H]3CO)O[C@@H]2CO)[C@H](O)[C@@H](O)[C@@H]1N[C@H]1C=C(CO)[C@@H](O)[C@H](O)[C@H]1O (some centres not stated) [ACARBOSE] | > 10 | > 10 | > 10 |  | AC50 [4]: > 10 µM; AC50 [5]: > 10 µM |
| CCc1ccc(CCOc2ccc(CC3SC(=O)NC3=O)cc2)nc1 (configuration not stated) [PIOGLITAZONE] | > 10 | > 10 | > 10 |  | AC50 [4]: > 10 µM; AC50 [5]: > 10 µM |
| NC(N)=Nc1nc(CSCCC(N)=NS(N)(=O)=O)cs1 [FAMOTIDINE] | > 10 | > 10 | > 10 |  | AC50 [5]: > 10 µM |
| Cc1ccc(O)c2ncccc12 [TILIQUINOL] |  |  |  | > 30 |  |
| CC(C)OC(=O)[C@H](C)N[P@](=O)(OC[C@H]1O[C@@H](n2ccc(=O)[nH]c2=O)[C@](C)(F)[C@@H]1O)Oc1ccccc1 [SOFOSBUVIR] |  |  |  | > 30 |  |
| Cc1ccc(C(=O)c2cc(O)c(O)c([N+](=O)[O-])c2)cc1 [TOLCAPONE] |  |  |  |  | AC50 [9]: 14 µM |
| CC(=O)OC[C@H]1O[C@@H](n2ccc(=O)[nH]c2=O)[C@H](OC(C)=O)[C@@H]1OC(C)=O [URIDINE TRIACETATE] |  |  |  | > 30 |  |
| COc1ccc2c(c1)C(=O)N(CCc1ccc(S(=O)(=O)NC(=O)NC3CCCCC3)cc1)C(=O)C2(C)C [GLIQUIDONE] |  |  |  |  | AC50 [9]: > 30 µM |
| CN(C)C(=O)Oc1ccc[n+](C)c1 [PYRIDOSTIGMINE] |  |  |  | > 30 |  |
| NC(=O)c1ncn([C@@H]2O[C@H](CO)[C@@H](O)[C@H]2O)c1O [MIZORIBINE] |  |  |  |  | AC50 [7]: > 30 µM |
| CCO/N=C(\C(=O)N[C@@H]1C(=O)N2C(C(=O)[O-])=C(Sc3nc(-c4cc[n+](C)cc4)cs3)CS[C@H]12)c1nsc(N)n1 [CEFTAROLINE] |  |  |  | > 30 |  |
| CCOC(=O)N[C@@H]1CC[C@@H]2[C@@H](C1)C[C@H]1C(=O)O[C@H](C)[C@H]1[C@H]2/C=C/c1ccc(-c2cccc(F)c2)cn1 [VORAPAXAR] |  |  |  | > 30 |  |
| COc1cc2c(cc1OC)C(=O)C(CC1CCN(Cc3ccccc3)CC1)C2 (configuration not stated) [DONEPEZIL] |  | > 10 |  | > 30 | AC50 [4]: > 10 µM; AC50 [11]: > 10 µM; AC50 [5]: > 10 µM |
| O=C(NC[C@H]1CN(c2ccc(N3CCOCC3=O)cc2)C(=O)O1)c1ccc(Cl)s1 [RIVAROXABAN] |  |  |  | > 30 | AC50 [9]: > 30 µM; AC50 [7]: > 30 µM |
